Legend:
CD14+CD11b+ monocytes = assay: Competitive resistin/LPS binding assay on human PBMCs (flow cytometry); assay type: cell-based; conditions: for LPS binding to CD14+CD11b+ monocytes: pre-incubation before LPS-biotin, on ice
Experimental: (§1) Human PBMCs. Human buffy coat was purchased from Zen-bio. Buffy coat was overlaid on top of Histopaque-1077 and spun at 700g at 25° C. with no brake and PBMCs were recovered from the interphase. PBMCs were plated in 96-well plates and stimulated with mammalian-derived human resistin (1 μg/mL, LifeSpan Biosciences) or hRetn N-peptide (1 μg/mL). After 24 hours, ultrapure LPS (100 ng/mL, Invivogen) was added and supernatants recovered for ELISA at 24 hours. Where indicated, cells were incubated for 4 hours with STAT3 (5, 15-DPP, 50 μM) or TBK1 (BX-795, 1 μM) inhibitors prior to hRetn treatment. For the hRetn competitive binding assay, 1×10^6 cells were incubated with recombinant hRetn (0.5 μg), washed in PBS then incubated with 0.5 μg LPS-biotin (incubations were 30 minutes on ice). Cells were washed in FACS buffer, treated with Fc block, and stained with BV605-conjugated streptavidin and α-human primary antibodies: CD14 (clone M5E2), CD11 b (clone M1/70) and MD2/TLR4 (clone HTA125) purchased from Affymetrix.

human PBMCs = assay: Human PBMC functional assay, LPS-induced cytokine secretion (ELISA); assay type: cell-based; conditions: human PBMC, pre-treatment then LPS 100 ng/mL
Experimental: as §1
Cytokine Quantification. Sandwich ELISAs were performed using capture and biotinylated antibodies for human resistin (Peprotech), IL-10 and TNFα (BD Biosciences) according to manufacturer's instructions. Detection was performed with streptavidin-peroxidase (Jackson ImmunoResearch) and TMB peroxidase substrate (BD Biosciences), followed by addition of 2N H2SO4. Optical density (OD) was captured at 450 nm. Samples were compared to serial-fold dilution of recombinant protein. For Luminex, inflammatory cytokine kits (Affymetrix) were run according to manufacturer's instructions and quantified on Luminex MagPix (Luminex Corp.). For cytokine bead array, cytokine kits from BD Bioscience were run according to manufacturer's instructions on BD LSRII and analyzed using FCAP Array Software.

human TLR4 = human TLR4 (Homo sapiens, UniProt O00206); assay: Pull-down assay with His-tagged human TLR4; assay type: binding; conditions: pre-incubation of His-TLR4 with 500 ng/ml N-peptide, anti-Flag blot
human TLR4, sequence (O00206 24-839): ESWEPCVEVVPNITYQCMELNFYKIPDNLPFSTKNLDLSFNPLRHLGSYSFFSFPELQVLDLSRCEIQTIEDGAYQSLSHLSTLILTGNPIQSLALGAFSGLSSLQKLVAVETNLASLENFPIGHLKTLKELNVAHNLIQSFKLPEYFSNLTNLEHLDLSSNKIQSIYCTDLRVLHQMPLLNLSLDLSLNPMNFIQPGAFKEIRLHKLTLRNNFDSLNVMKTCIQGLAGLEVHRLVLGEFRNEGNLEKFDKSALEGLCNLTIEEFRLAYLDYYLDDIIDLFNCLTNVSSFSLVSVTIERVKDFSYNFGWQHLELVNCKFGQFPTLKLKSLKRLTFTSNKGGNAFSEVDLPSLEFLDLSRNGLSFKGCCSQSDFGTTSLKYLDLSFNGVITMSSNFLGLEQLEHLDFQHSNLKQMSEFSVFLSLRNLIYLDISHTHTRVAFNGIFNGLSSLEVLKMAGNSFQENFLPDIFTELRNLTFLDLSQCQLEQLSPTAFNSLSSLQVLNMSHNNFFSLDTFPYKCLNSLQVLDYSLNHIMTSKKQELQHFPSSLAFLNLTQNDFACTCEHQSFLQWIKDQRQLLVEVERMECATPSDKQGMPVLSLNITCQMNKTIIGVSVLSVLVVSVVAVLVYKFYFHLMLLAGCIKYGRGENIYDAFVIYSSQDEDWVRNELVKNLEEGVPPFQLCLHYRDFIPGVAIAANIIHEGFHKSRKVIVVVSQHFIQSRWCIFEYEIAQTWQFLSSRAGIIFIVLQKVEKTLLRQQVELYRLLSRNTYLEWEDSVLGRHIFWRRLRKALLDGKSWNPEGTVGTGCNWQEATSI
Experimental: Pull-down Assay. 1 μg/ml protein His-tagged MBP, human TLR4 and human CAP1 were added to nickel-nitrilotriacetic acid-agarose beads (Invitrogen) in binding buffer (50 mM NaH2PO4, 500 mM NaCl, 10 mM Imidazole, pH 8.0) and mixed for 1 hour at 4° C., followed by washing and 1 h incubation at 4° C. with hRetn (E. coli-derived, Peprotech or 293T cell-derived, LifeSpan Biosciences) in binding buffer. Beads were washed in wash buffer (50 mM NaH2PO4, 500 mM NaCl, 20 mM Imidazole, pH 8.0), and complex protein eluted with elution buffer (50 mM NaH2PO4, 500 mM NaCl, 250 mM Imidazole, pH 6.0). His-MBP, His-TLR4 and His-CAP1 were detected by anti-His antibody (Abcam), and hRetn was detected by anti-hRetn antibody (donated by Mitchell Lazar) by Western Blot. For the N-peptide binding experiment, 1 μg/ml His-tagged human TLR4 with 500 ng/ml N-peptide or 10% TFE control was added to the beads in binding buffer and mixed for 30 min at 4° C., followed by co-immunoprecipitation using 1 μg/ml Flag-hRetn (LifeSpan Biosciences), anti-His or anti-Flag (Sigma).

Row | Compound | LPS-promoted surface MD2/TLR4 complex formation (CD14+CD11b+ monocytes; human PBMC, flow cytometry) | LPS binding to CD14+CD11b+ monocytes (CD14+CD11b+ monocytes) | LPS binding to CD14+CD11b+ monocytes (CD14+CD11b+ monocytes; listed as N-pep) | LPS-induced TNFα secretion (human PBMCs) | competitive inhibition of Flag-tagged full-length hRetn binding to hTLR4 (human TLR4) | IL-10 expression after LPS (human PBMCs)
1 | hRetn N-peptide: synthesized hRetn N-terminal peptide (1-23 a.a.), SEQ ID NO: 2 (MEEAINERIQEVAGSLIFRAISS) (listed as Homo sapiens) | abrogated | inhibited LPS binding | abrogated the binding of LPS in human PMBCs similar to full-length hRetn | significantly more efficient at suppressing LPS-induced TNFα than full-length hRetn | sufficient to abrogate binding of full-length hRetn | 
2 | O=C(NCCCNc1nc(Nc2cccc(NC(=O)N3CCCC3)c2)ncc1I)c1cccs1 [TBK1 inhibitor, BX-795, reference compound] |  |  |  | significantly reduced LPS-induced TNFα |  | increased IL-10 expression

From US20220009987A9, “HUMAN RESISTIN COMPOSITIONS AND METHODS OF TREATING TLR4-MEDIATED DISEASE AND INFECTION” (THE REGENTS OF THE UNIVERSITY OF CALIFORNIA, priority 2017, published 2022)
